Data on two compounds can be found in patent US6440387B1, “Methods for determining risk of Alzheimer's disease” (Children's Medical Center Corporation, priority 1998, dated 2002).

Experiment [1] has as its system Aβ production by human cortical neurons. Kind of experiment: Effect of HMG CoA reductase inhibitors on Aβ levels in human cortical neuronal cultures. Format: cell-based. Particulars: 100 μM, 48 hours. The method, then: Busciglio et al., (1993) Proc. Nat. Acad. Sci. 90, 2092-2096, described the production of Aβ by human cortical neurons in culture . To determine whether cholesterol can affect the production of Aβ, primary human brain cultures were established from the cortex of 16-20 week fetal abortuses, and the neurons incubated in the absence or presence of very low density lipoprotein (VLDL), low density lipoprotein (LDL) or high density lipoprotein (HDL) particles isolated from human plasma. These lipoprotein particles are the physiological vehicles for the transport of cholesterol to cells. The effects of the different lipoprotein particles on the levels of Aβ in the human cortical cultures was determined. The human cortical cultures were maintained in serum-free Dulbecco's Modified Eagle's Medium (DMEM) with N2 supplements (a serum-free supplement that supports neuronal viability). The medium was then changed to the same medium (controls) or medium supplemented with VLDL, LDL, or HDL particles. After incubation for 48-72 hours, Aβ was measured by immunoprecipitation of the culture medium with a polyclonal antibody to Aβ (B12), followed by Western blotting with a mohoclonal antibody to Aβ (6E10). […] The bands corresponding to the 40 and 42 amino acid form of Aβ were analyzed quantitatively using a computer software program. […]

The next experiment relates to Aβ levels in the brain. Kind of experiment: Dietary cholesterol and Aβ levels in rat cerebral cortex. Format: in vivo. The conditions noted are these: 20 month old rats, high cholesterol diet (5% cholesterol) vs low cholesterol diet (0.1% cholesterol), 10 weeks.

Each structure is given as a SMILES string.

Method for Aβ levels in the brain: These experiments were performed on 20 month old rats. The rats were fed a low cholesterol diet (0.1% cholesterol) or a high cholesterol diet (5% cholesterol). After 10 weeks, the animals were sacrificed and the cortex was removed for measurement of Aβ levels. Aβ was assayed by immunoprecipitating cortical homogenates with the Aβ antibody B12, followed by Western blotting with the commercially available Aβ monoclonal antibody 4G8.

Consider `CC[C@H](C)C(=O)O[C@H]1C[C@@H](C)C=C2C=C[C@H](C)[C@H](CC[C@@H]3C[C@@H](O)CC(=O)O3)[C@H]21` [lovastatin], for which the “levels of Aβ relative to controls” value in experiment [1] was “significantly decreased levels of Aβ”.
As for `CC(C)CCC[C@@H](C)[C@H]1CC[C@H]2[C@@H]3CC=C4C[C@@H](O)CC[C@]4(C)[C@H]3CC[C@]12C` [cholesterol], the “increase in Aβ levels in rat cerebral cortex” value in the experiment on Aβ levels in the brain is on record as “about 50%”.
